Values joined by “and” are separate entries in the source; they are usually repeats but may differ in a detail not shown here. Identical values can stand only once. “Also recorded” adds a separate entry of the source.
Tests used:
malaria murine = assay: Therapeutic activity of amino-acid derivatives of primaquine in the murine malaria model; format: in vivo
[1] = molecular target: T1, récepteur à asialoglycoprotéine des hépatocytes (Rattus norvegicus, UniProt P02706+P08290); assay: Competition with ¹²⁵I HSA gal for binding to cultured hepatocytes at 4°C; settings: for affinité pour le récepteur: cultured rat hepatocytes
T1 construct: le récepteur à galactoses présent à la membrane sinusoïdale des hépatocytes; endogenous in cells; host or cells: primary rat hepatocytes, isolated and cultured 16 h
T1 sequence (P02706 1-284): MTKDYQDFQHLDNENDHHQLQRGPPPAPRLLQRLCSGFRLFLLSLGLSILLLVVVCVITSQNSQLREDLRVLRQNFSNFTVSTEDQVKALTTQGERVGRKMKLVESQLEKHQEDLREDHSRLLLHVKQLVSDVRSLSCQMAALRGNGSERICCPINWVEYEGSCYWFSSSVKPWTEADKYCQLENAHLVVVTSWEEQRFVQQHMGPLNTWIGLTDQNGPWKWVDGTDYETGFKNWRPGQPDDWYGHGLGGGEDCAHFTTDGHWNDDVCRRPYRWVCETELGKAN
T1 sequence (P08290 1-301): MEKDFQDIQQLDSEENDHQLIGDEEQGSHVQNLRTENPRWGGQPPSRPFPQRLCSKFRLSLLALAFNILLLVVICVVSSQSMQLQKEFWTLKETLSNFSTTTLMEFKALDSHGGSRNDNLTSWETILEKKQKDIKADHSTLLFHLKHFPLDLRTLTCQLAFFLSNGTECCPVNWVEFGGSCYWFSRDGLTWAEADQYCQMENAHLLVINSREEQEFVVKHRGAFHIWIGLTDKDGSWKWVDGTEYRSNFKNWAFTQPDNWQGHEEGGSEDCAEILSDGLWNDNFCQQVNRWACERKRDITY
Method: D'autres caractéristiques et avantages de la présente invention apparaîtront à la lumière des exemples qui vont suivre. • - La figure 1 : Expériences de compétition entre l'HSA gal marqué à l'iode-125 et différentes concentrations molaires en HSA gal non radioactives (●) ou en composés glycosylés (mono O bi □ triantenne ▲ ) non radioactifs. Les cellules mises en culture depuis 16 h. sont incubées à 4°C pendant 4 h. en présence de 1 ml de milieu contenant 50 ng d'¹²⁵I HSA gal et les différentes concentrations en produits non radioactifs. Après l'incubation, les cellules sont lavées et la radioactivité qui leur est associée, mesurée. Les résultats sont exprimés en pourcentage d'¹²⁵I HSA gal qui reste associé aux cellules en fonction du logarithme de la concentration molaire en compétiteur. • - La figure 2 : Expériences de compétiton entre l'HSA gal marqué à l'iode-125 et différentes concentrations molaires en galactoses d'HSA gal ou de composés glycosylés (mono O bi □ et triantenne ▲ )non radioactifs. Les cellules sont traitées comme décrit dans la figure 1 et les résultats sont exprimés en pourcentage d'[…] HSA gal qui reste associé aux cellules en fonction du logarithme de la concentration molaire en galactose du compétiteur. • - La figure 3 : Distribution tissulaire de la triantenne marquée au tritium. Différentes concentrations en triantenne ³H sont administrées par voie intraveineuse à des souris OF₁. Trois minutes après l'injection, les animaux sont sacrifiés. Le sang et les différentes organes sont prélevés, homogénéisés et la radioactivité qui leur est associée, mesurée. Les résultats sont exprimés en pourcentage de la dose totale injectée et représentent la moyenne + déviation standard de 3 expériences. • - La figure 4 : Distribution tissulaire de la triantenne marquée au tritium. Des souris ont reçu par voie i.v. différentes concentrations de triantenne ³H. Les animaux sont sacrifiés 3 min. après l'injection. Le sang et les différents organes sont prélevés, homogénéisés et la radioactivité qui leur est associée, mesurée. Les résultats sont présentés en pourcentage de la dose injectée par gr. de tissu et représentent la moyenne + déviation standard de 3 expériences. • - La figure 5 : Capture hépatique de la triantenne marquée au tritium. Différentes concentrations en triantenne ³H sont injectées par voie i.v. à des souris OF₁. La radioactivité associée au foie est mesurée 3 min. après l'injection. Les valeurs sont exprimées en ng de galactose associés au foie en fonction des ng de galactoses injectés. • - La figure 6 : Distribution tissulaire de la triantenne marquée au tritium (a.) ou au technetium (b.). Une concentration de 100 µg en galactoses de triantenne radioactive est injectée par voie i.v. à des souris OF₁. Les animaux sont sacrifiés 3 min. après l'injection. Le sang et les différents organes sont prélevés, homogénéisés et la radioactivité qui leur est associée, mesurée. Les résultats sont exprimés en pourcentage de la dose totale administrée (case supérieure) ou en pourcentage de la dose totale injectée par gr. de tissu (case inférieure). Ils représentent la moyenne + déviation standard de 3 expériences.
L'étude in vitro des vecteurs hépatotropes de faible poids moléculaire a été effectuée sur des hépatocytes de rats isolés et mis en culture.
L'affinité relative a été déterminée par une expérience de compétition entre le vecteur et une néoglycoprotéine connue pour sa haute affinité pour les récepteurs à galactoses, soit l'albumine humaine
Afin de déterminer si les hépathocytes fixent spécifiquement les différents dérivés glycosylés (monoantenne = 3 galactoses terminaux; biantenne = 6 galactoses terminaux; triantenne = 9 galactoses terminaux), des expériences de compétition pour le récepteur à asialoglycoprotéines entre l'HSA gal et les différents composés ont été réalisées. […]

[2] = Blood disappearance and tissue distribution after i.v. administration (Example 7); format: in vivo, souris
From the text: In vivo, on a étudié la disparition sanguine ainsi que la distribution tissulaire de la triantenne suite à son administration intra-veineuse à des souris.

[3] = set-up: species or system souris OF₁; settings: in vivo, iv
Method: D'autres caractéristiques et avantages de la présente invention apparaîtront à la lumière des exemples qui vont suivre. • - La figure 1 : Expériences de compétition entre l'HSA gal marqué à l'iode-125 et différentes concentrations molaires en HSA gal non radioactives (●) ou en composés glycosylés (mono O bi □ triantenne ▲ ) non radioactifs. Les cellules mises en culture depuis 16 h. sont incubées à 4°C pendant 4 h. en présence de 1 ml de milieu contenant 50 ng d'¹²⁵I HSA gal et les différentes concentrations en produits non radioactifs. Après l'incubation, les cellules sont lavées et la radioactivité qui leur est associée, mesurée. Les résultats sont exprimés en pourcentage d'¹²⁵I HSA gal qui reste associé aux cellules en fonction du logarithme de la concentration molaire en compétiteur. • - La figure 2 : Expériences de compétiton entre l'HSA gal marqué à l'iode-125 et différentes concentrations molaires en galactoses d'HSA gal ou de composés glycosylés (mono O bi □ et triantenne ▲ )non radioactifs. Les cellules sont traitées comme décrit dans la figure 1 et les résultats sont exprimés en pourcentage d'[…] HSA gal qui reste associé aux cellules en fonction du logarithme de la concentration molaire en galactose du compétiteur. • - La figure 3 : Distribution tissulaire de la triantenne marquée au tritium. […]

hépatocytes = assay: Uptake (internalisation) by hepatocytes at 37°C; format: cell-based, rat; settings: short periods (120 min)
Method: A 37°C, les récepteurs intériorisent efficacement la triantenne. Par comparaison avec la capture de la macromolécule, ASH gal, les hépatocytes incubés pendant de courtes périodes (120 min), intériorisent jusqu'à 4 fois plus de molécules de triantenne.
Ce fait pourrait s'expliquer par la formation préférentielle de complexes ligand-récepteur à vitesse de dissociation lente, dans le cas de la triantenne.

récepteur d'Ashwell = molecular target: T2, récepteur d'Ashwell (Rattus norvegicus, UniProt P02706+P08290); assay: Binding sites and Kd of triantenne on hepatocytes; settings: number of sites
T2 construct: endogenous in cells
T2 sequence (P02706 1-284): T1 sequence (P02706 1-284)
T2 sequence (P08290 1-301): T1 sequence (P08290 1-301)

[4] = among amino-acid derivatives of primaquine
[5] = result in words, hepatocytes, 4°C

COc1cc(NC(C)CCCNC(=O)[C@@H](N)CCC(=O)O)c2ncccc2c1 (stereo partly drawn) [L-glutamyl-Pq]
index thérapeutique (malaria murine; [4]): meilleur index thérapeutique

COc1cc(NC(C)CCCNC(=O)C(N)CCCCN)c2ncccc2c1 [L-lysyl-Pq]
activité (malaria murine; [4]): meilleure activité
toxicité (malaria murine; compared with primaquine): toxicité plus élevée que celle de la primaquine

Cbz-Asp bis(-6-amino Hex-Tris tri Gal) [Biantenne]
affinité pour le récepteur ([1]; result in words): affinité importante
compétition avec l'HSA gal iodiné pour le récepteur à asialoglycoprotéine [1, 5]: induit une diminution de la radioactivité associée aux cellules; also recorded: entre effectivement en compétition

Cbz-Asp-(6-amino Hex-Tris tri Gal) [Monoantenne]
B=Ic50 (molaire en gal.) ([1]; molar concentration in galactoses of the competitor inhibiting 50 % of ¹²⁵I HSA gal binding, hepatocytes, 4°C, 4 h): non déterminable
A=Ic 50 (molaire) ([1]; molar concentration of competitor inhibiting 50 % of ¹²⁵I HSA gal binding, hepatocytes, 4°C, 4 h): non déterminable
affinité pour le récepteur ([1]; result in words): ne présentent d'affinité significative
compétition avec l'HSA gal iodiné pour le récepteur à asialoglycoprotéine [1, 5]: n'entre pas en compétition; also recorded: se fixe aspécifiquement sur les cellules

Cbz-Asp-Asp-tri(-6-amino Hex-Tris tri Gal) [Triantenne]
quantité accumulée par les hépatocytes ([2]; 5 min after injection): > 40 % de la quantité administrée
quantité interagissant avec les autres organes ([2]; 5 min after injection): < 2%
rapport des concentrations spécifiques du foie et des reins ([2]; after 10 min): 10
molécules captées par le foie par rapport à l'ASH gal ([2]; comparable number of molecules, after 5 min): ~2 fois
disparition sanguine ([2]; result in words): éliminée très rapidement de la circulation sanguine
rapport des concentrations spécifiques du foie et des reins ([2]; start value): 1.5
matériel radioactif associé au sang ou au plasma [3]: ≤ 10 % de la dose initiale administrée
radioactivité associée aux autres organes (rate, coeur, poumons, muscles, estomac, duodenum, colon, rectum) [3]: < 5%
molécules intériorisées par rapport à l'ASH gal (hépatocytes): ≤ 4 fois
affinité par rapport à celle de la biantenne ([1]; ratio triantenne / biantenne): ~100 fois and 60 fois
affinité exprimée en concentration molaire en galactoses, par rapport à l'HSA gal ([1]; result in words): du même ordre de grandeur
affinité pour le récepteur ([1]; result in words): la plus haute affinité pour le récepteur; also recorded: affinité importante
compétition avec l'HSA gal iodiné pour le récepteur à asialoglycoprotéine [1, 5]: induit une diminution de la radioactivité associée aux cellules
sites de haute affinité (récepteur d'Ashwell): 56370 sites
sites de plus faible affinité (récepteur d'Ashwell): 490500 sites
